Data: patent US9243278B2, “Mechanotransduction by the synergistic action of heterotypic cell interactions” (Brown University, priority 2011, dated 2016)
Entries after “also recorded” stand apart in the source; their conditions may differ.

Key:
[1] = tested on: normal human fibroblasts (NHF); experiment: toroid-on-cone cell power assay, homotypic NHF toroids; type: cell-based
Method: Toroid molds suitable for side view microcopy were designed as previously described (9). Toroid molds were designed using the computer aided design (CAD) software Solid Works (Solid Works Corporation, Concord, Mass., USA). The mold was designed with 12 features to create wells. Each feature is a rounded edged (350 μm in diameter) cylinder (1.1 mm) with a cone indent in the center. The slope of the central cone was 65° and it is 650 μm in diameter. CAD files were used to produce thermowax molds with a rapid prototyping machine (3D Systems Corporation, Valencia, Calif.).
Wax molds were used to cast 13% polyacrylamide gels. Gels were removed from wax molds and transferred to six well culture plates. Each of the resulting wells is a circular trough confined by the hydrogel wall at the outer edge of the trough and by a conical peg on the inner edge of the trough. The gels were rinsed with fresh culture medium and then equilibrated overnight at 37° C. in 4 ml of DMEM supplemented with 1% penicillin/streptomycin (pen/strep). After equilibration, the medium was removed, and the gels were rinsed with fresh medium.
NHFs (passage 4-10), derived from neonatal foreskins, and H35s (passage 5-11) were grown in T-175 flasks in DMEM with 10% FBS and 1% pen/strep at 37° C. and 10% CO2. Cells were removed from flasks using a standard trypsin process. Briefly, cells were exposed to 0.05% trypsin for 10 minutes, quenched with serum containing medium, spun down at 800 rpm for 6 minutes, resuspended in a known volume of medium, and counted using a hemocytometer. Cell solution (70 μl) was added to each hydrogel. After 30 minutes, 4 ml of fresh medium was added to each of the wells. After seeding, images of the samples were taken every 2 hours for about 8 hours. Pure NHF microtissues were seeded with about 10,500, about 21,000, about 25,000 or about 35,000 cells/well. Heterotypic microtissues were seeded at ratios of about 1:1, about 2:3, about 1:4; about 1:6, about 1:10, about 1:16, and about 1:20 (NHF:H35). The seeding per well for heterotypic samples was kept constant at about 21,000 cells/well. For TGF-β1 experiments, NHFs and H35s were incubated for 48 hours in DMEM with 10% FBS, 1% penn/strep and 5 ng/ml human recombinant TGF-β1 (Invitrogen, Carlsbad, Calif., USA), passed according to standard protocol, and seeded at about 21,000 cells/well. NHFs^TGF-β1 coseeded with H35s were seeded in DMEM with 10% FBS, 1% penn/strep without additional TGF-β1. […]
Convential view fluorescent and phase images were captured using Carl Zeiss Axio Observer Z1 with an AxioCam Mrm camera (Carl Zeiss MicroImaging, Thornwood, N.Y., USA). To capture side view images, a Mitutoyo FS-110 microscope was modified to lie on its back and a translational stage was added to hold samples. Samples were imaged in bright field through the eyepiece of the microscope. ImageJ Software (NIH Rasband, W.S. USA) was used to measure the height of the toroid, the major radius, and the minor radius of the toroid.
The range of power exerted by increasing numbers of NHFs (>3 fold) in a homotypic environment by seeding the cells into non-adhesive hydrogels with toroid recesses, each with a central cone (65° slope) was measured. Cells settled and formed cell-cell adhesions that drove the toroid shaped microtissue up the cone. The power necessary to move the NHF toroid up the cone as P=ΔW/Δt was calculated, where ΔW is work performed against gravity to move a toroid of a known mass to a given height, and Δt is the time over which the work is performed (9). […] Toroid power increased linearly as cell number increased, but power per NHF (cell power) was independent of cell number, with a peak cell power of 0.22±0.02 fJ/hr (2 hrs) and an average cell power (over all time points) of 0.16±0.03 fJ/hr.

[2] = tested on: NHFs and H35s; experiment: self-sorting of fluorescently labeled NHFs and H35s in microtissues; type: cell-based, human, rat
Method: For sorting experiments, NHFs and H35s were incubated with 2.5 μM CellTracker™ Red CMPTX and CellTracker™ Green CMFDA™ (Invitrogen, Carlsbad, Calif., USA), respectively, in serum free media for 30 minutes. After incubation, the dye was aspirated and the cells equilibrated in serum media for 1 hour prior to passing. For NHF^TGF-β1:H35 sorting experiments NHFs were incubated for 48 hours in DMEM with 10% FBS, 1% penn/strep and 5 ng/ml TGF-β1. After incubation the NHF^TGF-β1 and H35s were fluorescently labeled and passed as previously described.
Convential view fluorescent and phase images were captured using Carl Zeiss Axio Observer Z1 with an AxioCam Mrm camera (Carl Zeiss MicroImaging, Thornwood, N.Y., USA). To capture side view images, a Mitutoyo FS-110 microscope was modified to lie on its back and a translational stage was added to hold samples. Samples were imaged in bright field through the eyepiece of the microscope. […]
Using self sorting to identify drugs, TGF-β1 is a growth factor linked to fibrosis and well known for its ability to increase cell mediated contraction and synthesis of extracellular matrix proteins such as collagen. […] Also, as self-sorting proceeds the quantity of heterotypic interface decreases and the homotypic interface increases as cells partition. […]

[3] = homotypic toroid 100% NHF^TGF-β

transforming growth factor-β1 [TGF-β1]
height of the NHF^TGF-β1 toroid relative to untreated NHFs ([1]; 2 hours, NHFs treated 48 hours in 5 ng/ml TGF-β1): twice as far; also recorded: increased two fold
average cell power ([1]; NHF^TGF-β1): 0.16 ± 0.21 fJ/h
peak cell power ([1]; NHF^TGF-β1, 2 hrs): 0.47 fJ/h
Toroid Power ([1]; NHF^TGF-β1 homotypic toroid, two hours): 9.82 ± 1.32 pJ/h
increase in NHF cell power in the homotypic environment ([1]; TGF-β treatment alone): about 1.9 fold
change in NHF cell power relative to untreated controls (in words) ([1]; homotypic NHF toroids treated with TGF-β1): doubling in cell power; also recorded: increased only two fold; also recorded: doubled; also recorded: doubles cell power
Enhancement in NHF Cell Power [1, 3]: 0.23 fJ/hr/NHF
Toroid Power [1, 3]: 9.80 pJ/h
Enhancement in Toroid Power ([1]; homotypic toroid 100% NHF^TGF-β versus control): 4.7 pJ/h
Fold Increase in NHF Cell Power ([1]; homotypic toroid 100% NHF^TGF-β, effects of TGF-β alone): 1.9x
self-sorting of NHFs and H35s in heterotypic toroids ([2]; NHF^TGF-β1:H35 toroids (1:10), up to 24 hours): prevented sorting; also recorded: reduced; also recorded: sorting was eliminated
self-sorting of NHFs and H35s in spheroids ([2]; mixes (1:1) of NHFs and H35s treated with TGF-β1): inhibited self-sorting
